For 3 compounds, MIC results are on record in DBAASP.

The structures appear in SMILES notation. In brackets after ≈: the same amount, converted by molar mass.

Common to all, as to assay: ≥ marks a high value that may be exact or a test limit, other limits are often not marked, values filed in µg/mL are converted to µM
In experiment [1] the test system is Bacillus subtilis KCTC 3068.
Experiment [2] has as its system Candida albicans KCTC 7965.
Experiment [3] deals with Candida tropicalis KCTC 1925.
Another experiment relates to Enterococcus sp.
The subject of experiment [4] is Escherichia coli K-12 594.
For experiment [5], the system named is Micrococcus luteus KCTC 3063.
The subject of experiment [6] is Staphylococcus aureus KCTC 1928.
Another experiment has as its system Staphylococcus aureus.
In experiment [7] the test system is Candida albicans TIMM 1768.
Experiment [8] deals with Saccharomyces cerevisiae KCTC 7296.
For experiment [9], the system named is Trichosporon beigelii KCTC 7707.
Experiment [10] concerns Aspergillus fumigatus KCTC 4165.
The test system of experiment [11] is Bacillus subtilis KCTC 1918.
Experiment [12] has as its system Escherichia coli KCTC 1682.
Experiment [13] deals with Pseudomonas aeruginosa KCTC 1637.
The test system of experiment [14] is Salmonella typhimurium KCTC 1926.
For experiment [15], the system named is Staphylococcus aureus KCTC 1621.
Experiment [16] deals with Streptococcus pyogenes KCTC 3096.

Regarding `CC[C@H](C)[C@H](NC(=O)[C@H](CCCCN)NC(=O)[C@H](CCCCN)NC(=O)[C@H](CC(C)C)NC(=O)[C@H](C)NC(=O)[C@H](CCCN=C(N)N)NC(=O)[C@H](CCCCN)NC(=O)CNC(=O)[C@H](CC(C)C)NC(=O)[C@H](CCCN=C(N)N)NC(=O)[C@H](CC(C)C)NC(=O)[C@H](C)NC(=O)[C@H](CC(C)C)NC(=O)CNC(=O)[C@H](CC(N)=O)NC(=O)[C@H](CC(C)C)NC(=O)[C@H](CC(C)C)NC(=O)CN)C(=O)N[C@H](C(=O)N[C@@H](CCCCN)C(=O)N[C@@H](CCCN=C(N)N)C(=O)N[C@@H](CC(C)C)C(=O)N[C@@H](CS)C(=O)N[C@@H](CCCN=C(N)N)C(=O)O)[C@@H](C)CC` [GLLNGLALRLGKRALKKIIKRLCR], the MIC in experiment [1] came out at 1.15 µM (≈ 3.12 µg/mL); in experiment [2], 18.5 µM (≈ 50 µg/mL); in experiment [3], 1.15 µM (≈ 3.12 µg/mL); against Enterococcus sp., 9.24 µM (≈ 25 µg/mL); in experiment [4], 1.15 µM (≈ 3.12 µg/mL); in [5], 0.577 µM (≈ 1.56 µg/mL). Moreover, the MIC (in experiment [6]; in the experiment with Staphylococcus aureus) was 9.24 µM (≈ 25 µg/mL) each time.

Consider `CC[C@H](C)[C@H](NC(=O)[C@@H](NC(=O)[C@@H](N)CCCNC(=N)N)[C@@H](C)CC)C(=O)N[C@@H](CC(=O)O)C(=O)N[C@@H](CC(C)C)C(=O)N[C@@H](CC(C)C)C(=O)N[C@@H](Cc1c[nH]c2ccccc12)C(=O)N[C@@H](CCCNC(=N)N)C(=O)N[C@H](C(=O)N[C@@H](CCCNC(=N)N)C(=O)N[C@@H](CCCNC(=N)N)C(=O)N1CCC[C@H]1C(=O)N[C@@H](Cc1c[nH]c2ccccc12)C(=O)N[C@@H](CCCCN)C(=O)N1CCC[C@H]1C(=O)N[C@@H](CCCCN)C(=O)N[C@@H](Cc1ccccc1)C(=O)N[C@H](C(=O)N[C@H](C(=O)N[C@H](C(=O)N[C@@H](Cc1c[nH]c2ccccc12)C(=O)N[C@H](C(=O)N[C@H](C=O)CCCNC(=N)N)C(C)C)C(C)C)[C@@H](C)O)C(C)C)C(C)C` [RIIDLLWRVRRPWKPKFVTVWVR], for which the MIC in [7] came to 14.1 µM (≈ 42.5 µg/mL); in [8] it was 10 µM (≈ 30 µg/mL); in experiment [9] it was 10 µM (≈ 30 µg/mL).

In the case of `CC[C@H](C)[C@H](NC(=O)[C@H](CCCCN)NC(=O)[C@H](CCCCN)NC(=O)[C@H](CC(C)C)NC(=O)[C@H](CCCCN)NC(=O)[C@H](CCCCN)NC(=O)CN)C(=O)NCC(=O)N[C@@H](CCC(N)=O)C(=O)N[C@@H](CCCCN)C(=O)N[C@H](C(=O)N[C@@H](CCCCN)C(=O)N[C@@H](CC(N)=O)C(=O)N[C@@H](Cc1ccccc1)C(=O)N[C@@H](Cc1ccccc1)C(=O)N[C@@H](CCC(N)=O)C(=O)N[C@@H](CCCCN)C(=O)N[C@@H](CC(C)C)C(=O)O)[C@@H](C)CC` [GKKLKKIGQKIKNFFQKL], the MIC came out at 12.5 µM (≈ 26.8 µg/mL) in experiment [10]; 3.12 µM (≈ 6.7 µg/mL) in experiment [11]; 6.25 µM (≈ 13.4 µg/mL) in [7]; 3.12 µM (≈ 6.7 µg/mL) in [12]; 0.78 µM (≈ 1.67 µg/mL) in experiment [13]; 1.56 µM (≈ 3.35 µg/mL) in [14]. The MIC in [15] was 1.56 µM (≈ 3.35 µg/mL); in [16], 3.12 µM (≈ 6.7 µg/mL).

What is called MIC is the lowest concentration that inhibits growth of the organism.
